Data reported in patent publication US5840721A, “Imidazole derivatives as MDR modulators” (Ontogen Corporation, priority 1997, dated 1998).

Assays:
CEM/VLB1000 cell line [1] = assay: [3H]VLB accumulation in CEM/VLB1000 cells; type: cell-based; details: Homo sapiens, midpoint of minimum and maximum increase in accumulation of 3H-vinblastine (275 nM), 3 hours at 37° C
Experimental: ^3 H-vinblastine accumulation was also measured in the CEM/VLB1000 cell line. Corning Easy-Wash 96 well plates were pretreated with PBS and 1% BSA for 60 minutes and then removed. CEM/VLB1000 cells were seeded at 2×10^5, 40 μL volume. Plates were incubated at 37° C. for 30-60 minutes prior to use. The reference reversing agent, verapamil, or the compound of the present invention was added to the well followed by addition of media containing ^3 H-vinblastine (final concentration=275nM). Plates were allowed to incubate for 3 hours at 37° C. Cells were harvested onto pretreated Wallace filtermats A (pretreated with 0.1% polyethyleneimine) using a TomTek harvester-96. After filtering, the filtermats were allowed to dry completely. Meltix B scintillant was then added to the filtermats. The filters were then placed in a 90° C. oven for approximately 3-5 minutes and then removed. Scintillant was allowed to solidify on the filtermats. Filtermats were then placed in sample bags and read on a Wallace BetaPlate scintillation counter. The effects of compounds of the present invention in the cytotoxicity potentiation assays and vinblastine (VLB) accumulation assay are given in the Table below:
^2 Values presented are the midpoint (EC50 ) of the minimum and
maximum increase in accumulation of ^3 Hvinblastine caused by the
specfic compound of the present invention.

CEM/VLB1000 cell line [2] = assay: Cytotoxicity potentiation: enhancement of vinblastine cytotoxicity in MDR cell line (alamar blue); type: cell-based, human; details: Homo sapiens, midpoint of minimum and maximum cytotoxicity induced by 3-5 μg/mL vinblastine and compound, 48 hours incubation, alamar blue 24 hours, read-out: Cytotocicity Potentiation (EC50)
Experimental: Multidrug-resistant cell lines are easily obtainable for in vitro determination of drug sensitization by compounds of the present invention. In vitro potentiation of antineoplastic cytotoxicity by the imidazole derivatives of the present invention was measured in both CEM/VLB1000 and SK/VLB1000 cell lines. The multidrug resistant cell lines were obtained from Dr. Victor Ling, Ontario Cancer Institute, Toronto, Canada. The CEM/VLB 1000 cell line was maintained as a suspension in minimum essential medium supplemented with 10% fetal bovine serum in a humidied atmosphere of 95% air and 5% CO2 while the SK/VLB 1000 cell line was maintained as adherent cells using the identical medium conditions as the CEM cells. The CEM/VLB 1000 cells were seeded at a density of 5×10^4 cells/well in a 96 well microtiter plate while the SK/VLB 1000 cell line was seeded at a density of 2,500 cells/well after trypsinization.

SMILES: COC/C=C/c1ccc(-c2nc(-c3ccc(N(C)C)cc3)c(-c3ccc(N(C)C)cc3)[nH]2)cc1 [Example 74, 2-[4-(3-methoxy-trans-1-propen-1-yl)phenyl]-4,5-bis (4-N,N-dimnethylaminophenyl) imidazole]
- EC50 (CEM/VLB1000 cell line [1]): 2000 nM
- EC50 (CEM/VLB1000 cell line [2]): 130 nM

SMILES: CN(C)C(=O)/C=C/c1ccc(-c2nc(-c3ccc(N(C)C)cc3)c(-c3ccc(N(C)C)cc3)[nH]2)cc1 [Example 111]
- EC50 (CEM/VLB1000 cell line [1]): 1700 nM
- EC50 (CEM/VLB1000 cell line [2]): 620 nM

SMILES: CN(C)c1ccc(-c2nc(-c3ccc(/C=C/CO)cc3)[nH]c2-c2ccc(N(C)C)cc2)cc1 [Example 113, 2-[4-(3-hydroxy-trans-1-propen-1-yl)phenyl]-4,5-bis (4-N,N-dimethylaminophenyl) imidazole]
- EC50 (CEM/VLB1000 cell line [1]): 3900 nM
- EC50 (CEM/VLB1000 cell line [2]): 410 nM
